According to patent publication US4923990A, “Pyrindamycins A and B and duocarmycin A antibiotics derived from certain streptomyces culture” (priority 1986, dated 1990):
≈ marks a conversion by molar mass, not a printed value. Where two headings read alike, the source gives them in different places.

Key:
[1] = test system: Shigella sonnei ATCC 9290; test: Minimum inhibitory concentration, agar dilution method; assay type: cell-based; details: ATCC9290, pH 7
Procedure: (§1) (A) Minimum inhibitory concentration against various microorganisms (MIC μg/ml)
(§2) The antibacterial activity was measured by the agar dilution method, using a medium (pH 7) prepared by dissolving 3 g of Bacto-Tryptone (Manufacturedby Difco Co., Ltd.), 3 g of meat extract, 1 g of yeast extract, 1 g of glucose and 16 g of agar in 1 l of water.

[2] = test system: Bacillus subtilis No. 10707; test: as above; assay type: cell-based; details: pH 7
Procedure: as §1, §2

[3] = test system: Salmonella typhi ATCC 9992; test: as above; assay type: cell-based; details: Salmonella enterica, pH 7
Procedure: as §1, §2

[4] = test system: Escherichia coli ATCC 26; test: as above; assay type: cell-based; details: ATCC26, pH 7
Procedure: as §1, §2

[5] = test system: Klebsiella pneumoniae ATCC 10031; test: as above; assay type: cell-based; details: ATCC10031, pH 7
Procedure: as §1, §2

[6] = test system: Staphylococcus aureus ATCC 6538P; test: as above; assay type: cell-based; details: ATCC6538P, pH 7
Procedure: as §1, §2

[7] = Acute toxicity; details: mouse, in vivo, ip; intraperitoneal administration to mice
[8] = test system: lymphocytic leukemia P388 tumor; test: Therapeutic effect on lymphocytic leukemia P388 tumor; assay type: in vivo, male CDF1 mice
Procedure: (2) Therapeutic effect on lymphocytic leukemia P388 tumor
Five male CDF1 mice each having a weight of about 22 g were used for each group as test animals, and 1×10^6 cells of lymphocytic leukemia P388 tumor were implanted intraperitoneally into the test animals. […] The mean survival days after implantation and increased life span (T/C) (T: mean survival days for the treated groups, C: mean survival days for the control group) were calculated.
For comparison, 0.2 ml of PBS solution containing mitomycin C was intraperitoneally administered to a group of animals 24 hours after tumor implantation.

[9] = test system: Sarcoma 180 solid tumor; assay type: in vivo, male ddY-strain mice; details: for Average Tumor Volume / T/C (average tumor volume treated/control): day 10
Procedure: (1) Therapeutic effect against Sarcoma 180 solid tumor
Six male ddY-strain mice each having a weight of about 20 g were used for each group as test animals, and 5×10^6 cells of Sarcoma 180 ascites tumor were implanted subcutaneously into the animals at the axilla. 0.2 ml of phosphate buffered saline (hereinafter referred to as PBS) containing DC-88A or DC-89Al at the concentrations shown in Tables 3 and 4 was administered once intraperitoneally 24 hours after implantation.
The composition of PBS was 0.8 g/dl NaCl, 0.02 g/dl KCl, […] Na2 HPO4 and 0.02 g/dl KH2 PO4 (pH 7.2).
The average tumor volume (mm^3) and T/C [T: average tumor volume of the groups treated with the test compound (mm^3), C: that of control group which received an intraperitoneal administration of 0.2 ml of PBS solution (mm^3)] were determined ten days after implantation.
For comparison, 0.2 ml of PBS containing mitomycin C was intraperitoneally administered to a group of animals 24 hours after tumor implantation.

[10] = Solubility; assay type: physicochemical
[11] = methanol, ethanol, acetone, chloroform, ethyl acetate, DMSO

Work on `COC(=O)C1(C)NC2=C(C1=O)C13CC1CN(C(=O)c1cc4cc(OC)c(OC)c(OC)c4[nH]1)C3=CC2=O` (stereo not drawn) [DC-88A, duocarmycin A] yielded an MIC [1] of 40 µg/mL (≈ 78.8 µM), an MIC [2] of 0.05 µg/mL (≈ 0.0985 µM) and an MIC [3] of 10 µg/mL (≈ 19.7 µM). It also gave an MIC [4] of 20 µg/mL (≈ 39.4 µM), an MIC [5] of 0.5 µg/mL (≈ 0.985 µM) and an MIC [6] of 0.05 µg/mL (≈ 0.0985 µM). For the same compound, the LD50 [7] was ~0.94 mg/kg, the “Increased Life Span (T/C)” value ([8]; 0.024 mg/kg, continuous administration for five days) was 1.43 and the “Mean Survival Days” value ([8]; 0.024 mg/kg, continuous administration for five days, control 11.0) was 15.7 days. For the same compound, the “Increased Life Span (T/C)” value ([8]; 0.098 mg/kg ip once) was 1.08, the “Mean Survival Days” value ([8]; 0.098 mg/kg ip once 24 h after implantation, control 11.0) was 11.9 days and the “Increased Life Span (T/C)” value ([8]; 0.195 mg/kg ip once) was 1.15. The “Mean Survival Days” value ([8]; 0.195 mg/kg ip once 24 h after implantation, control 11.0) was 12.7 days, the “Increased Life Span (T/C)” value ([8]; 0.39 mg/kg ip once) was 1.14 and the “Mean Survival Days” value ([8]; 0.39 mg/kg ip once 24 h after implantation, control 11.0) was 12.5 days. For the same compound, the “Increased Life Span (T/C)” value ([8]; 0.78 mg/kg ip once) was 1.12, the “Mean Survival Days” value ([8]; 0.78 mg/kg ip once 24 h after implantation, control 11.0) was 12.3 days and the “Average Tumor Volume” value ([9]; 0.195 mg/kg ip once 24 h after implantation, control 2124.7) was 1104.8 mm^3. The “T/C (average tumor volume treated/control)” value ([9]; 0.195 mg/kg ip once) was 0.52, the “Average Tumor Volume” value ([9]; 0.39 mg/kg ip once 24 h after implantation, control 2124.7) was 849.9 mm^3 and the “T/C (average tumor volume treated/control)” value ([9]; 0.39 mg/kg ip once) was 0.40. The “Average Tumor Volume” value ([9]; 0.78 mg/kg ip once 24 h after implantation, control 2124.7) was 467.4 mm^3, the “T/C (average tumor volume treated/control)” value ([9]; 0.78 mg/kg ip once) was 0.22 and the Solubility [10, 11] was “Soluble”. For the same compound, the Solubility ([10]; water and hexane (n-hexane)) was “sparingly soluble”.

For `COC(=O)C1(C)Nc2c(O)cc3c(c2C1=O)CC(Cl)CN3C(=O)c1cc2cc(OC)c(OC)c(OC)c2[nH]1` (stereo not drawn) [DC-89Al, duocarmycin Cl], the MIC [2] was 0.07 µg/mL (≈ 0.129 µM), the MIC [3] was > 100 µg/mL and the MIC [4] was > 100 µg/mL. The MIC [5] was 4.2 µg/mL (≈ 7.72 µM), the MIC [6] was > 8.4 µg/mL and the LD50 [7] was ~1.17 mg/kg. For the same compound, the “Increased Life Span (T/C)” value ([8]; 0.125 mg/kg ip once) was 1.28, the “Mean Survival Days” value ([8]; 0.125 mg/kg ip once 24 h after implantation, control 10.7) was 13.8 days and the “Increased Life Span (T/C)” value ([8]; 0.25 mg/kg ip once) was 1.38. The “Mean Survival Days” value ([8]; 0.25 mg/kg ip once 24 h after implantation, control 10.7) was 14.8 days, the “Increased Life Span (T/C)” value ([8]; 0.5 mg/kg ip once) was 1.40 and the “Mean Survival Days” value ([8]; 0.5 mg/kg ip once 24 h after implantation, control 10.7) was 15.0 days. The “Increased Life Span (T/C)” value ([8]; 1 mg/kg ip once) was 1.23, the “Mean Survival Days” value ([8]; 1 mg/kg ip once 24 h after implantation, control 10.7) was 13.2 days and the “Average Tumor Volume” value ([9]; 0.78125 mg/kg ip once 24 h after implantation, control 1828.0) was 1409.5 mm^3. For the same compound, the “T/C (average tumor volume treated/control)” value ([9]; 0.78125 mg/kg ip once) was 0.77, the “Toxic (printed in column Average Tumor Volume)” value ([9]; 1.5625 mg/kg ip once 24 h after implantation) was “Toxic” and the Solubility [10, 11] was “readily soluble”. The Solubility ([10]; water and hexane (n-hexane)) was “sparingly soluble”.

With `CO[C@@]12[C@H](COC(N)=O)C3=C(C(=O)C(C)=C(N)C3=O)N1C[C@@H]1N[C@@H]12` [Mitomycin C, mitomycin C, reference compound] the “Increased Life Span (T/C)” value ([8]; 6.0 mg/kg ip) was 1.60, the “Mean Survival Days” value ([8]; 6.0 mg/kg ip 24 h after implantation, control 10.7) was 17.2 days and the “Average Tumor Volume” value ([9]; 6 mg/kg ip 24 h after implantation, control 1828.0) was 499.6 mm^3. For the same compound, the “T/C (average tumor volume treated/control)” value ([9]; 6 mg/kg ip) was 0.27.
